From ChEMBL document CHEMBL5728503, “Second generation GRP94-selective inhibitors” (2021)

target: Endoplasmin (Canis lupus familiaris, UniProt P41148); assay: Fluorescence Polarization Assay: The assay was performed in 96-well black, flat-bottom plates with a final volume of 100 μL. 25 μL of assay buffer (20 mM HEPES, pH 7.3, 50 mM KCl, 5 mM MgCl2, 20 mM Na2MoO4, 2 mM DTT, 0.1 mg/mL BGG, and 0.01% NP-40) were added, followed by 25 μL of assay buffer containing 6 nM FITC-GDA (fluorescent tracer, stock in DMSO, diluted in assay buffer) and 50 μL of assay buffer containing 10 nM of either Grp94 or Hsp90α were added to each well. For each plate, wells containing buffer only (background), tracer in buffer only (low polarization control) and protein, tracer, and 1% DMSO (final concentration, high polarization control) were included. Compounds were then added with a final concentration of DMSO=1%. Plates were incubated at 4° C. with rocking for 24 h. […] Polarization values were correlated to % tracer bound and compound concentrations.
Sequence (P41148 whole entry): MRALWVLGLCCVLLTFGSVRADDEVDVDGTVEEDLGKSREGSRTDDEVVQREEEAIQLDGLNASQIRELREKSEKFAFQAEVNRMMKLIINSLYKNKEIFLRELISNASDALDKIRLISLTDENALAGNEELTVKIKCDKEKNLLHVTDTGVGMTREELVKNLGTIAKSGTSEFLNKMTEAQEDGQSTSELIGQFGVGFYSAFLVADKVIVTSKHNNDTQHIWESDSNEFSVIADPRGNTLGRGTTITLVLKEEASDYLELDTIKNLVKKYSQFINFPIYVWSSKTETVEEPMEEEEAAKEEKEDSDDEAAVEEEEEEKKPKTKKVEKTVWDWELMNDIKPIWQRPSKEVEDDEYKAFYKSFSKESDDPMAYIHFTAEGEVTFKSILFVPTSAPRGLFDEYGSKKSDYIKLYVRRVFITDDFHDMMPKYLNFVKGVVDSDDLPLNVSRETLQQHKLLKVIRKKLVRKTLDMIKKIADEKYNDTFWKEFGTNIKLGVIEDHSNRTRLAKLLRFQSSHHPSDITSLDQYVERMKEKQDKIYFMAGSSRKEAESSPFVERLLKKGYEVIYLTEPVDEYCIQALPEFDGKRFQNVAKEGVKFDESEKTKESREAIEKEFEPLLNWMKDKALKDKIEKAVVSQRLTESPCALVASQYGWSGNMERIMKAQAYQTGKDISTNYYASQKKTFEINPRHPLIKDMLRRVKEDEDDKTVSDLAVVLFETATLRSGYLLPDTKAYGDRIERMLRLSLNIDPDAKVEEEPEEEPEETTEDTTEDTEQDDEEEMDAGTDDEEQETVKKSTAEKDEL

SMILES	Kd
COC(=O)c1c(O)cc(O)c(Cl)c1CCc1ccc(OC)cc1Cc1ccccc1	680 nM
CCOc1ccccc1Cc1ccccc1CCc1c(Cl)c(O)cc(O)c1C(=O)OC	6100 nM
COC(=O)c1c(O)cc(O)c(Cl)c1CCc1cc(N)ccc1Cc1ccccc1	280 nM
COC(=O)c1c(O)cc(O)c(Cl)c1CCc1ccccc1Cc1ccccc1Cl	5500 nM
COC(=O)c1c(O)cc(O)c(Cl)c1CCc1ccccc1Cc1cccc(Cl)c1	11900 nM
COC(=O)c1c(O)cc(O)c(Cl)c1CCc1cccc(O)c1Cc1ccccc1	540 nM
COC(=O)c1c(O)cc(O)c(Cl)c1CCc1ccccc1Cc1ccc(Cl)cc1	4200 nM
COC(=O)c1c(O)cc(O)c(Cl)c1CCc1cccc(OC)c1Cc1ccccc1	730 nM
COC(=O)c1c(O)cc(O)c(Cl)c1CCc1ccccc1Cc1ccccc1OC	7800 nM
COC(=O)c1c(O)cc(O)c(Cl)c1CCc1ccc(O)cc1Cc1ccccc1	330 nM
COC(=O)c1c(O)cc(O)c(Cl)c1CCc1ccc(N)cc1Cc1ccccc1	240 nM
COC(=O)c1c(O)cc(O)c(Cl)c1CCc1cccc(Cc2ccccc2)c1	10400 nM
COC(=O)c1c(O)cc(O)c(Cl)c1CCc1cc(OC)ccc1Cc1ccccc1	450 nM
